Some test systems named below: CAKI-1 renal; DU-145 prostate; HCC-2998 colon; HCT-116 colon; HL-60(TB) leukemia; IGROV1 ovarian; KM12 colon; M14 melanoma; MALME-3M melanoma; MCF7 breast; MDA-MB-231 breast; PC-3 prostate; SF-295 CNS; SK-MEL-28 melanoma; SK-OV-3 ovarian; SN12C renal; SNB-75 CNS; SR leukemia; TK-10 renal; UO-31 renal.
Common to all, as to assay: DTP human tumour cell line panel, 48 h

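Briefly, cells in 96-well plates were exposed to five compound concentrations for 48 h, and endpoints were estimated by linear interpolation. TGI denotes the concentration required for complete inhibition of growth.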 Some results are limits rather than exact numbers.

The results in this text go back to PubChem BioAssay (NCI).

The TGI is the concentration giving total growth inhibition.

For the compound `CCN(CCCl)c1cc(CN(C)C)cc(NC(=O)c2ccc(C(=O)Nc3cccc(N(CCCl)NN)c3)cc2)c1`, the TGI was determined as 203 nM with CAKI-1 renal; 8660 nM with DU-145 prostate; 298 nM in the assay with HCC-2998 colon; 10100 nM with HCT-116 colon; 13100 nM in the assay with HL-60(TB) leukemia; 78 nM in the assay on IGROV1 ovarian. Further, the TGI came out at 329 nM with KM12 colon; 294 nM with M14 melanoma; 93.9 nM in the assay with MALME-3M melanoma; 171 nM in the assay with MCF7 breast; 690 nM in the assay on MDA-MB-231 breast; 66.1 nM with PC-3 prostate. For the same compound, the TGI with SF-295 CNS was 12500 nM; in the assay on SK-MEL-28 melanoma, 505 nM; with SK-OV-3 ovarian, 13300 nM; with SN12C renal it was 1160 nM; in the assay with SNB-75 CNS it was 775 nM; with SR leukemia it was more than 100000 nM. Also, the TGI with TK-10 renal was found to be 618 nM; in the assay with UO-31 renal, 1540 nM.
